In patent US11629171B2, “Beta-hairpin peptidomimetics” (POLYPHOR AG, priority 2017, dated 2023):
In brackets after ≈: the same amount, converted by molar mass. Where a SMILES comes first, the peptide text is derived from it. Bridges are numbered along the chain shown (N, C = ends). Roman numbers before positions name the chains, in order. [ ]: non-standard residue; d: D form. Tle = CC(C)(C)[C@H](N)C(=O)O; NMeV = CN[C@H](C(=O)O)C(C)C; dDab = NCC[C@@H](N)C(=O)O; hSer = N[C@@H](CCO)C(=O)O; Orn = NCCC[C@H](N)C(=O)O; Dab = NCC[C@H](N)C(=O)O; Dap = NC[C@H](N)C(=O)O

Columns and labels:
Format in all cases: cell-based
[1] = test system: human red blood cells (hRBC); assay: Hemolysis; conditions: red cells of human, 1 h, 200
Method: The peptides were tested for their hemolytic activity against human red blood cells (hRBC). Fresh hRBC were washed four times with phosphate buffered saline (PBS) and centrifuged for 10 min at 3000×g. Compounds (200 μg/mL) were incubated with 20% hRBC (v/v) for 1 h at 37° C. and shaking at 300 rpm. A value of 0% and 100% cell lysis, respectively, was determined by incubation of hRBC in the presence of PBS containing 10% water and 2% Triton X-100 in H2O, respectively. The samples were centrifuged, the supernatants were ˜7.5-fold diluted in PBS buffer and the optical densities (OD) were measured at 540 nm and blank corrected. The 100% lysis value (OD540Triton X-100) gave an OD540 of approximately 0.5-1.0.
Percent hemolysis was calculated as follows: (OD540peptide/OD540Triton X-100)×100%.

[2] = test system: Acinetobacter baumannii DSM 30008; conditions: DSM 30008
Method: (§1) The in vitro antimicrobial activities of the peptides were determined in 96-well plates (Greiner, polystyrene) by the standard CLSI broth microdilution method (Clinical and Laboratory Standards Institute 2014. Performance standards for antimicrobial susceptibility testing, 24th informational supplement. Approved standard CLSI M100-S24; Clinical and Laboratory Standards Institute, Wayne, Pa.). The following microorganisms were used to determine antibiotic activity of the peptides: Escherichia coli ATCC 25922, Klebsiella pneumoniae SSI #3010^a), Acinetobacter baumannii DSM 30008, Pseudomonas aeruginosa ATCC 27853 and the clinical isolates Escherichia coli 926415^b), Klebsiella pneumoniae 968733^b), Acinetobacter baumannii 872842^b), Enterobacter cloacae 848840^b) and Escherichia coli MCR-1 Af45^c). Before preparation of inocula, Escherichia coli MCR-1 Af45 was subcultured on Mueller-Hinton II (MH-cation adjusted) agar containing 2 μg/mL colistin. ^a) Obtained from Statens Serum Institut (SSI), Copenhagen, Denmark^b) Obtained from International Health Management Associates, Inc. (IHMA Europe Sàrl), Epalinges, Switzerland^c) Obtained from Prof. Patrice Nordmann, University of Fribourg, Fribourg, Switzerland
(§2) Inocula of the microorganisms were diluted into Mueller-Hinton II (MH-cation adjusted) broth and compared with a 0.5 McFarland standard to give appr. 10^6 colony forming units (CFU)/mL. Aliquots (90 μL) of inoculum were added to 10 μL of MH-II broth+P-80 (Polysorbate 80, 0.002% final concentration, v/v) containing the peptide in serial two-fold dilutions. Antimicrobial activities of the peptides were expressed as the minimal inhibitory concentration (MIC) in μg/mL at which no visible growth was observed after 18-20 hours of incubation at 35° C.

[3] = test system: Klebsiella pneumoniae SSI #3010; conditions: SSI #3010
Method: as §1, §2

[4] = test system: Escherichia coli ATCC 25922; conditions: ATCC 25922
Method: as §1, §2

[5] = test system: Pseudomonas aeruginosa ATCC 27853; conditions: ATCC 27853
Method: as §1, §2

Structure (SMILES)	MIC [2]	MIC [3]	MIC [4]	MIC [5]	Hemolysis at 200 μg/mL [1]
CC(C)C[C@@H]1NC(=O)[C@@H](CC(C)C)NC(=O)[C@H](CCN)NC(=O)[C@@H](NC(=O)[C@H](CCN)NC(=O)[C@@H](NC(=O)[C@H](CCN)NC(=O)CC[C@@H]2NC(=O)[C@H](CCN)NC(=O)[C@H](Cc3ccc(O)cc3)NC(=O)[C@@H](NC(=O)[C@@H](N)C(C)C)CCC(=O)NCC[C@@H](C(=O)N[C@@H](CO)C(=O)O)NC(=O)[C@H](C(C)(C)C)NC(=O)[C@H](CO)NC(=O)[C@H](Cc3c[nH]c4ccccc34)NC(=O)[C@H]([C@@H](C)O)NC(=O)[C@@H](CCN)NC2=O)[C@@H](C)O)CCNC(=O)[C@H]([C@@H](C)O)NC(=O)[C@H](CCN)NC(=O)[C@H](CCN)NC1=O [Ex. 56] (I: H-VEY[Dab]E[dDab]TWS[Tle][Dab]S-OH / II: [Dab]T[Dab][Dab][Dab][dL]L[Dab][Dab]T; lactam I:2-I:11, II:4-II:C; amide I:5-II:N)	1 µg/mL (≈ 0.415 µM)	1 µg/mL (≈ 0.415 µM)	0.5 µg/mL (≈ 0.208 µM)	0.5 µg/mL (≈ 0.208 µM)	<1%
CC(=O)N[C@H](C(=O)N[C@@H](CCN)C(=O)N[C@@H](Cc1ccc(O)cc1)C(=O)N[C@@H](CN)C(=O)N[C@@H](CCC(=O)N[C@@H](CCN)C(=O)N[C@H](C(=O)N[C@@H](CN)C(=O)N[C@H]1CCNC(=O)[C@H]([C@@H](C)O)NC(=O)[C@H](CCN)NC(=O)[C@H](CCN)NC(=O)[C@H](CC(C)C)NC(=O)[C@@H](CC(C)C)NC(=O)[C@H](CCN)NC1=O)[C@@H](C)O)C(=O)N[C@H](CCN)C(=O)N[C@@H](CO)C(=O)N[C@@H](Cc1c[nH]c2ccccc12)C(=O)N[C@@H](CO)C(=O)N[C@H](C(=O)N[C@@H](CCC(=O)O)C(=O)N[C@@H](CO)C(N)=O)C(C)(C)C)C(C)C [Ex. 229] (I: Ac-V[Dab]Y[Dap]E[dDab]SWS[Tle]ES-NH2 / II: [Dab]T[Dap][Dab][Dab][dL]L[Dab][Dab]T; amide I:5-II:N; lactam II:4-II:C)	0.5 µg/mL (≈ 0.206 µM)	0.125 µg/mL (≈ 0.0516 µM)	0.125 µg/mL (≈ 0.0516 µM)	0.5 µg/mL (≈ 0.206 µM)	2%
CC(=O)N[C@H](C(=O)N[C@H]1CCCNC(=O)[C@@H](CC(N)=O)NC(=O)[C@H](C(C)(C)C)NC(=O)[C@H](CO)NC(=O)[C@H](Cc2c[nH]c3ccccc23)NC(=O)[C@H](CCO)NC(=O)[C@@H](CCN)NC(=O)[C@H](CCC(=O)N[C@@H](CCN)C(=O)N[C@H](C(=O)N[C@@H](CN)C(=O)N[C@H]2CCNC(=O)[C@H]([C@@H](C)O)NC(=O)[C@H](CCN)NC(=O)[C@H](CCN)NC(=O)[C@H](CC(C)C)NC(=O)[C@@H](CC(C)C)NC(=O)[C@H](CCN)NC2=O)[C@@H](C)O)NC(=O)[C@H](CO)NC(=O)[C@H](Cc2ccc(O)cc2)NC1=O)C(C)C [Ex. 19] (I: Ac-V[Orn]YSE[dDab][hSer]WS[Tle][dN] / II: [Dab]T[Dap][Dab][Dab][dL]L[Dab][Dab]T; lactam I:2-I:C, II:4-II:C; amide I:5-II:N)	0.125 µg/mL (≈ 0.0536 µM)	0.125 µg/mL (≈ 0.0536 µM)	0.125 µg/mL (≈ 0.0536 µM)	0.25 µg/mL (≈ 0.107 µM)	<1%
CC(=O)N[C@H](C(=O)N[C@H](C(=O)N[C@@H](Cc1ccc(O)cc1)C(=O)N[C@H]1CC(=O)NCC[C@@H](C(=O)N[C@H](C(=O)N[C@@H](C)C(=O)N[C@@H](CO)C(N)=O)C(C)C)NC(=O)[C@H](Cc2c[nH]c3ccccc23)NC(=O)[C@H](CCO)NC(=O)[C@@H](CCN)NC(=O)[C@H](CCC(=O)N[C@@H](CCN)C(=O)N[C@H](C(=O)N[C@@H](CCN)C(=O)N[C@H]2CCNC(=O)[C@H]([C@@H](C)O)NC(=O)[C@H](CCN)NC(=O)[C@H](CCN)NC(=O)[C@H](CC(C)C)NC(=O)[C@@H](CC(C)C)NC(=O)[C@H](CCN)NC2=O)[C@@H](C)O)NC1=O)[C@@H](C)O)C(C)C [Ex. 187] (I: Ac-VTYDE[dDab][hSer]W[Dab]VAS-NH2 / II: [Dab]T[Dab][Dab][Dab][dL]L[Dab][Dab]T; lactam I:4-I:9, II:4-II:C; amide I:5-II:N)	0.5 µg/mL (≈ 0.208 µM)	0.25 µg/mL (≈ 0.104 µM)	0.125 µg/mL (≈ 0.052 µM)	0.5 µg/mL (≈ 0.208 µM)	<1%

Further lines, with some results ahead:

MIC [2]	MIC [3]	MIC [4]	MIC [5]	Structure (SMILES)	Hemolysis at 200 μg/mL [1]
0.25 µg/mL (≈ 0.105 µM)	0.5 µg/mL (≈ 0.21 µM)	0.125 µg/mL (≈ 0.0525 µM)	0.125 µg/mL (≈ 0.0525 µM)	CN[C@H](C(=O)N[C@@H](CN)C(=O)N[C@@H](Cc1ccc(O)cc1)C(=O)N[C@H]1CSSC[C@@H](C(=O)N[C@H](C(=O)N[C@@H](C)C(=O)N[C@@H](CO)C(N)=O)C(C)(C)C)NC(=O)[C@H](Cc2c[nH]c3ccccc23)NC(=O)[C@H]([C@@H](C)O)NC(=O)[C@@H](CCN)NC(=O)[C@H](CCC(=O)N[C@@H](CCN)C(=O)N[C@H](C(=O)N[C@@H](CCN)C(=O)N[C@H]2CCNC(=O)[C@H]([C@@H](C)O)NC(=O)[C@H](CCN)NC(=O)[C@H](CCN)NC(=O)[C@H](CC(C)C)NC(=O)[C@@H](CC(C)C)NC(=O)[C@H](CCN)NC2=O)[C@@H](C)O)NC1=O)C(C)C [Ex. 180] (I: H-[NMeV][Dap]YCE[dDab]TWC[Tle]AS-NH2 / II: [Dab]T[Dab][Dab][Dab][dL]L[Dab][Dab]T; disulfide I:4-I:9; amide I:5-II:N; lactam II:4-II:C)	<1%
0.25 µg/mL (≈ 0.105 µM)	0.25 µg/mL (≈ 0.105 µM)	0.125 µg/mL (≈ 0.0524 µM)	0.125 µg/mL (≈ 0.0524 µM)	CN[C@H](C(=O)N[C@H](C(=O)N[C@@H](Cc1ccc(O)cc1)C(=O)N[C@H]1CSSC[C@@H](C(=O)N[C@H](C(=O)N[C@@H](C)C(=O)N[C@@H](CO)C(N)=O)C(C)C)NC(=O)[C@H](Cc2c[nH]c3ccccc23)NC(=O)[C@H](CCO)NC(=O)[C@@H](CCN)NC(=O)[C@H](CCC(=O)N[C@@H](CCN)C(=O)N[C@H](C(=O)N[C@@H](CCN)C(=O)N[C@H]2CCNC(=O)[C@H]([C@@H](C)O)NC(=O)[C@H](CCN)NC(=O)[C@H](CCN)NC(=O)[C@H](CC(C)C)NC(=O)[C@@H](CC(C)C)NC(=O)[C@H](CCN)NC2=O)[C@@H](C)O)NC1=O)[C@@H](C)O)C(C)C [Ex. 183] (I: H-[NMeV]TYCE[dDab][hSer]WCVAS-NH2 / II: [Dab]T[Dab][Dab][Dab][dL]L[Dab][Dab]T; disulfide I:4-I:9; amide I:5-II:N; lactam II:4-II:C)	<1%
0.125 µg/mL (≈ 0.0512 µM)	0.125 µg/mL (≈ 0.0512 µM)	0.125 µg/mL (≈ 0.0512 µM)	0.125 µg/mL (≈ 0.0512 µM)	CC(=O)N[C@@H](CCN)C(=O)N[C@H](C(=O)N[C@H](C(=O)N[C@@H](Cc1ccc(O)cc1)C(=O)N[C@H]1CSSC[C@@H](C(=O)N[C@H](C(=O)N[C@@H](CCN)C(N)=O)C(C)(C)C)NC(=O)[C@H](Cc2c[nH]c3ccccc23)NC(=O)[C@H](CO)NC(=O)[C@@H](CCN)NC(=O)[C@H](CCC(=O)N[C@@H](CCN)C(=O)N[C@H](C(=O)N[C@@H](CN)C(=O)N[C@H]2CCNC(=O)[C@H]([C@@H](C)O)NC(=O)[C@H](CCN)NC(=O)[C@H](CCN)NC(=O)[C@H](CC(C)C)NC(=O)[C@@H](CC(C)C)NC(=O)[C@H](CCN)NC2=O)[C@@H](C)O)NC1=O)[C@@H](C)O)C(C)C [Ex. 218] (I: Ac-[Dab]VTYCE[dDab]SWC[Tle][Dab]-NH2 / II: [Dab]T[Dap][Dab][Dab][dL]L[Dab][Dab]T; disulfide I:5-I:10; amide I:6-II:N; lactam II:4-II:C)	<1%
0.5 µg/mL (≈ 0.214 µM)	0.5 µg/mL (≈ 0.214 µM)	0.25 µg/mL (≈ 0.107 µM)	0.25 µg/mL (≈ 0.107 µM)	CC(=O)N[C@@H](CCN)C(=O)N[C@H](C(=O)N[C@@H](CN)C(=O)N[C@@H](Cc1ccc(O)cc1)C(=O)N[C@H]1CSSC[C@@H](C(=O)N[C@H](C(N)=O)C(C)(C)C)NC(=O)[C@H](Cc2c[nH]c3ccccc23)NC(=O)[C@H](CCN)NC(=O)[C@@H](CCN)NC(=O)[C@H](CCC(=O)N[C@@H](CCN)C(=O)N[C@H](C(=O)N[C@@H](CN)C(=O)N[C@H]2CCNC(=O)[C@H]([C@@H](C)O)NC(=O)[C@H](CCN)NC(=O)[C@H](CCN)NC(=O)[C@H](CC(C)C)NC(=O)[C@@H](CC(C)C)NC(=O)[C@H](CCN)NC2=O)[C@@H](C)O)NC1=O)C(C)C [Ex. 14] (I: Ac-[Dab]V[Dap]YCE[dDab][Dab]WC[Tle]-NH2 / II: [Dab]T[Dap][Dab][Dab][dL]L[Dab][Dab]T; disulfide I:5-I:10; amide I:6-II:N; lactam II:4-II:C)	<1%
